In patent publication US20200031820A1, “3-CARBOXYLIC ACID PYRROLES AS NRF2 REGULATORS” (GLSXOSMITHKLINE INTELLECTUAL PROPERTY DEVELOPMENT LIMITED, priority 2016, published 2020):

Experiments:
[1] = system: NQO1 specific enzyme activity in BEAS-2B cells (marker for NRF2 activation); experiment: Beas2B NQO1 MTT Assay; type: cell-based; settings: Homo sapiens, NQO1 specific activity induction, 48 hours with compound
Excerpt: NAD(P)H:quinone oxidoreductase 1 (NQO1), also called DT diaphorase, is a homodimeric FAD-containing enzyme that catalyses obligatory NAD(P)H-dependent two-electron reductions of quinones and protects cells against the toxic and neoplastic effects of free radicals and reactive oxygen species arising from one-electron reductions. The transcription of NQO1 is finely regulated by NRF2, and thus NQO1 activity is a good marker for NRF2 activation. On day one, frozen BEAS-2B cells (ATCC) were thawed in a water bath, counted, and re-suspended at a concentration of 250,000 cells/mL. Fifty microliters of cells were plated in 384 well black clear-bottomed plates. Plates were incubated at 37° C., 5% CO2 overnight. On day two, plates were centrifuged and 50 nL of compound or controls were added to the cells. Plates were then incubated at 37° C., 5% CO2 for 48 hours. On day four, medium was aspirated from the plate and crude cell lysates were made by adding 13 uL of 1× Cell Signaling Technologies lysis buffer with 1 Complete, Mini, EDTA-free Protease Inhibitor Tablet (Roche) for each 10 mL of lysis buffer. After lysis plates were incubated for 20 minutes at room temperature. Two microliters of lysate were removed for use in Cell Titer Glo assay (Promega) and MTT cocktail was prepared (Prochaska et. al. 1998) for measurement of NQO1 activity. Fifty microliters of MTT cocktail was added to each well, plate was centrifuged, and analysed on an Envision plate reader (Perkin Elmer) using Absorbance 570 nm label for 30 minutes. Product formation was measured kinetically and the pEC50 of NQO1 specific activity induction was calculated by plotting the change in absorbance (Delta OD/min) versus the log of compound concentration followed by 3-parameter fitting.
EC50s <1 nM (+++++), EC50s 10 nM-1 nM (++++), EC50s 10-100 nM (+++), EC50s 100 nM-1 μM (++), EC50s 1-10 μM (+), EC50s >10 μM (−), or were not determined (ND).

[2] = biological target: T1, full length NRF2 protein and full length Keap1 protein (Homo sapiens, UniProt Q14145); experiment: NRF2-Keap1 TR-FRET Low Protein Assay; type: binding; settings: Keap1 FlagHis, biotin-NRF2
T1 construct: full length NRF2 protein and full length Keap1 protein; His
Excerpt: NRF2-Keap1 TR-FRET Low Protein Assay In the NRF2-Keap1 TR-FRET (time-resolved fluorescence resonance energy transfer) low protein assay, full length NRF2 protein and full length Keap1 protein (Keap1 exists a dimer) are used. The assay detects a compound's ability to displace the binding of Keap1 FlagHis with biotinylated Avi-NRF2 protein. Biotin-NRF2 binds to streptavidin-europium (a component of the detection mix) and Keap1 FlagHis is recognized by anti-Flag APC (allophycocyanin) antibody (also a component of the detection mix). If binding occurs between the two proteins, there will be an energy transfer from the Eu+3 (donor) at 615 nm to the APC (acceptor) at 665 nm. A potential NRF2 inhibitor will cause a reduction in the TR-FRET signal by interfering with the binding of Keap1 to NRF2.
Ten nanoliters of 100× compound dose response curves (serial 3-fold dilutions) in DMSO were stamped using an Echo liquid handling system (Labcyte) into 384-well, low volume, black assay plates (Greiner, #784076), with DMSO in columns 6 and 18. An additional 90 nl DMSO was added to each well, to bring the total volume to 100 nl per well. The top concentration of compound was located in columns 1 and 13, with the serial dilutions going across the row. All reagents were diluted in assay buffer (50 mM Tris, pH 8.0, 5 mM MgCl2, 100 mM NaCl, 0.005% BSA, 1 mM DTT, and 2 mM CHAPS. The BSA, DTT, and CHAPS were added to the assay buffer on the day of assay. Using a Multidrop Combi (Thermo Electron Corporation) equipped with a metal tip dispenser, 5 ul of 1.25 nM Keap1 FlagHis protein was added to all wells of the compound plate, with the exception of the wells in column 18. Wells in column 18 received 5 ul of assay buffer instead. Plates were centrifuged at 500 rpm for 1 minute, covered with a plate lid, and incubated at 37° C. for 2.25 hours. Plates were then removed from the incubator and allowed to cool to RT for 15 minutes. Five microliters of 2.5 nM biotin-NRF2 protein was then added to all wells of the plates and the plates were spun at 500 rpm for 1 minute, followed by incubating at 4° C. for 1.25 hours. The plates were then allowed to warm to RT for 15 minutes, followed by the addition of 10 ul of detection mix (1 nM Streptavidin Eu+ W1024 and 5 ug/ml mouse anti-DYKDDDDK IgG conjugated to SureLight APC antibody; both from Columbia Biosciences) to all wells. Plates were spun at 500 rpm for 1 minute, incubated for 1 hour at RT, and read on an Envision plate reader using a 320 nm excitation filter and 615 nm and 665 nm emission filters. Compound response (% inhibition) and potency (pIC50) were calculated based on the ratio of the two emissions (665 nm/615 nm) and then the transformed data is normalized against controls in the assay (control 1=1% DMSO in the presence of NRF2 and Keap1 protein and control 2=1% DMSO in the presence of only the NRF2 protein). Data analysis was handled using the software package Abase XE (Surrey, United Kingdom). The % inhibition values were calculated from the ratio (transformed) data by the equation:
100−(100*(compound response−average control 2)/(average control 1−average control2)).
For calculation of pIC50s, Abase XE used a four-parameter equation.
IC50s<10 nM (+++++), IC50s 10-100 nM (++++), IC50s 100 nM-1 uM (+++), IC50s 1-10 uM (++). & IC50s 10 uM-100 uM (+), IC50s >100 uM (−), or were not determined (ND).

T1 sequence (Q14145 whole entry): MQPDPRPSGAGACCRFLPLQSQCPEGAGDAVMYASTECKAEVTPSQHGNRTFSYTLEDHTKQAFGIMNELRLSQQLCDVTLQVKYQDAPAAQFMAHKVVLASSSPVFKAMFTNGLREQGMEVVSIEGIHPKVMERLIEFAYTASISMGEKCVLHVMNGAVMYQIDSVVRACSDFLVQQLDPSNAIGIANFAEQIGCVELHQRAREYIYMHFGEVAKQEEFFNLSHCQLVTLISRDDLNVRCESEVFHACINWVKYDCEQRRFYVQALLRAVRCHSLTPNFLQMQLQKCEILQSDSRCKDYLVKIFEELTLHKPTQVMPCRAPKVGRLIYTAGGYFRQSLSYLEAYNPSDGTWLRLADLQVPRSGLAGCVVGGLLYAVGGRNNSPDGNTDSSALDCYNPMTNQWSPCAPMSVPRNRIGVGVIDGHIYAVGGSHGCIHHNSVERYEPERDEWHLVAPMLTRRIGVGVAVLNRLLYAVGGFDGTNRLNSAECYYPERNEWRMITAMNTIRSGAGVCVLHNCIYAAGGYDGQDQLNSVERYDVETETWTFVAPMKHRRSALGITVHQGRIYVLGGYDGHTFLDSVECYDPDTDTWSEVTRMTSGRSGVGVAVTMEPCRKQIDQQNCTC

EC50 [2] [nM] | Structure (SMILES) | EC50 [1] [nM]
10000 to 100000 | C[C@H]1Cc2ccc(C(F)(F)F)cc2S(=O)(=O)N(C2CCc3c2cccc3-n2ccc(C(=O)O)c2C2CC2)C1 (mixture of isomers) [Example 12, 2-Cyclopropyl-1-(1-((S)-4-methyl-1,1-dioxido-8-(trifluoromethyl)-4,5-dihydrobenzo[f][1,2]thiazepin-2(3H)-yl)-2,3-dihydro-1H-inden-4-yl)-1H-pyrrole-3-carboxylic acid] | 100 to 1000
1000 to 10000 | CCC[C@@H]1CCCCN1C(=O)c1cccc(-c2cccc(-n3ccc(C(=O)O)c3[C@@H]3C[C@H]3c3cn(C)nn3)c2)c1C(F)(F)F [Example 24] | 1000 to 10000
1000 to 10000 | Cc1ccc(CN2C[C@@H](C)Cc3ccc(C(F)(F)F)cc3S2(=O)=O)cc1-n1ccc(C(=O)O)c1[C@@H]1C[C@H]1c1cn(C)nn1 (racemic) [Example 11, rac-2-(trans-2-(1-methyl-1H-1,2,3-triazol-4-yl)cyclopropyl)-1-(2-methyl-5-(((S)-4-methyl-1,1-dioxido-8-(trifluoromethyl)-4,5-dihydrobenzo[f][1,2]thiazepin-2(3H)-yl)methyl)phenyl)-1H-pyrrole-3-carboxylic acid] | 100 to 1000
10 to 100 | C[C@H]1Cc2ccc(C(F)(F)F)cc2S(=O)(=O)N(Cc2cccc(-n3ccc(C(=O)O)c3[C@@H]3C[C@H]3c3cn(C)nn3)c2)C1 (racemic) [Example 1, 1-(3-(((S)-4-Methyl-1,1-dioxido-8-(trifluoromethyl)-4,5-dihydrobenzo[f]-[1,2]thiazepin-2(3H)-yl)methyl)phenyl)-2-(trans-2-(1-methyl-1H-1,2,3-triazol-4-yl)cyclopropyl)-1H-pyrrole-3-carboxylic acid] | 10 to 100
